Source: paper PMC2941879 (Bioorganic & medicinal chemistry, 2010)
Counter-ions that a name gives are not always drawn.

Legend:
[1] = molecular target: α2C receptors; details: read-out: Affinity at α2C receptors; cited from earlier work
[2] = molecular target: cloned hD1 receptors (Homo sapiens, UniProt P21728); assay: Cyclic AMP accumulation assay; assay type: cell-based
cloned hD1 receptors, sequence (P21728 whole entry): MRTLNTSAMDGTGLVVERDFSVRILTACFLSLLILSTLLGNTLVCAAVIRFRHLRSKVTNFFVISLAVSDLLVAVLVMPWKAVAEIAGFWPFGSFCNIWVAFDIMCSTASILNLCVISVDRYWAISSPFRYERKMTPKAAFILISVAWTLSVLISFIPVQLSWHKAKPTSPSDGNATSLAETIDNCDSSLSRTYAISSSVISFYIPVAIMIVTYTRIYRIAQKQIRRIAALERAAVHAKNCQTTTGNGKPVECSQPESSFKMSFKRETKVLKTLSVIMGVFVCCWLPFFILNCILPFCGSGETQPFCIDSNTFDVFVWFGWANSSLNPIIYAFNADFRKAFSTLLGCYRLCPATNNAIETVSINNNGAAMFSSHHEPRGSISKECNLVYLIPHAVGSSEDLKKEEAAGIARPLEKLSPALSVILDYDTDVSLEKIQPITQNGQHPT

SMILES	Ki [1] [nM]	Agonist character at D1 receptors [2]
Oc1cc2c(cc1O)C1c3ccccc3CNC1CO2 (centres unmarked) [DOX, doxanthrine]	2	
Oc1ccc2c(c1O)C[C@@H](c1ccccc1)[C@@H]1CCNC[C@@H]21 [compound 3, Trans-5-Phenyl-1,2,3,4,4a,5,6,10b-octahydrobenzo[h]isoquinoline-7,8-diol Hydrobromide]		full agonist
